From ChEMBL document CHEMBL2203271, “Pharmaceutical composition comprising indole compound for treatment of diseases associated with oxidative stress: patent highlight” (ACS Med Chem Lett, 2012)

Test system: H9c2
Test: Cytoprotective activity against tBOOH-induced oxidative stress in rat H9c2 cells after 2 hrs by SRB assay
Assay type: functional, cell-based
Conditions: H9c2, 2 h

| Compound | IC50 |
| --- | --- |
| c1ccc(-c2nc3cccc(NC4CCOC4)c3[nH]2)cc1 (configuration not stated) | 2000 nM |
| c1ccc(-c2nc3cccc(NC4CCCC4)c3[nH]2)cc1 | 600 nM |
